Measurements as given in the NIST ThermoML archive (doi:10.1016/j.fluid.2019.06.001).
Numbers after ± are expanded uncertainties.

Conditions: Fluid (supercritical or subcritical phases), Brillouin light scattering technique

CCCCCC [hexane]
Conditions | speed of sound [m/s]
509.17 K, 3500 kPa | 162.1 ± 9.4
509.4 K, 4500 kPa | 243.8 ± 14
509.44 K, 6500 kPa | 331.1 ± 21
509.57 K, 5500 kPa | 291.1 ± 18
509.67 K, 7500 kPa | 361.3 ± 25
511.22 K, 5500 kPa | 286.1 ± 17
511.26 K, 4500 kPa | 232.7 ± 13
511.27 K, 6500 kPa | 324.2 ± 21
511.34 K, 7500 kPa | 355.3 ± 24
511.69 K, 3500 kPa | 138.7 ± 8.8
514.25 K, 7500 kPa | 347.2 ± 23
514.43 K, 6500 kPa | 314.1 ± 20
514.46 K, 3500 kPa | 112.5 ± 8.6
514.5 K, 4500 kPa | 216.4 ± 12
514.6 K, 5500 kPa | 272 ± 16
517.46 K, 7500 kPa | 336.8 ± 22
517.47 K, 4500 kPa | 201.9 ± 11
517.58 K, 6500 kPa | 303.6 ± 18
517.72 K, 3500 kPa | 95.8 ± 8.2
517.82 K, 5500 kPa | 260.2 ± 15
519.87 K, 3500 kPa | 100.4 ± 7.2
520.19 K, 7500 kPa | 328.5 ± 21
520.36 K, 4500 kPa | 183.7 ± 10
520.46 K, 6500 kPa | 289 ± 17
520.54 K, 5500 kPa | 245.2 ± 14
523.4 K, 4500 kPa | 168.4 ± 8.9
523.63 K, 6500 kPa | 278.2 ± 16
523.79 K, 3500 kPa | 112.7 ± 6.2
523.89 K, 5500 kPa | 229.4 ± 13
523.93 K, 7500 kPa | 316.5 ± 20
527.66 K, 4500 kPa | 155 ± 7.6
527.85 K, 3500 kPa | 120.4 ± 5.5
528.22 K, 5500 kPa | 210.9 ± 11
528.42 K, 7500 kPa | 304.2 ± 18
528.58 K, 6500 kPa | 263.2 ± 15
533.3 K, 4500 kPa | 131.7 ± 6
533.43 K, 7500 kPa | 285.3 ± 17
533.48 K, 6500 kPa | 248.1 ± 14
533.62 K, 5500 kPa | 194.1 ± 10
533.83 K, 3500 kPa | 134.2 ± 5.7
538.14 K, 4500 kPa | 125 ± 5.5
538.33 K, 5500 kPa | 174.8 ± 9
538.58 K, 6500 kPa | 231.5 ± 13
538.81 K, 7500 kPa | 270.8 ± 16
538.84 K, 3500 kPa | 140.1 ± 6.1
543 K, 4500 kPa | 125.6 ± 5.4
543.14 K, 6500 kPa | 219.9 ± 12
543.21 K, 5500 kPa | 165.4 ± 8.1
543.52 K, 7500 kPa | 259.9 ± 15
543.69 K, 3500 kPa | 145.3 ± 6.3
547.89 K, 5500 kPa | 158.2 ± 7.6
547.96 K, 4500 kPa | 130.2 ± 5.6
548.14 K, 6500 kPa | 207.4 ± 11
548.31 K, 3500 kPa | 149.2 ± 6.8
548.56 K, 7500 kPa | 248.3 ± 14
553.1 K, 3500 kPa | 155.1 ± 7.1
553.44 K, 7500 kPa | 235.1 ± 13
553.55 K, 6500 kPa | 194.1 ± 9.8
553.6 K, 4500 kPa | 134.9 ± 5.8
554.09 K, 5500 kPa | 150.9 ± 7
558.44 K, 3500 kPa | 161.5 ± 7.3
558.48 K, 4500 kPa | 139.2 ± 6
558.9 K, 5500 kPa | 144.8 ± 6.4
559.79 K, 6500 kPa | 180.9 ± 8.9
560.33 K, 7500 kPa | 222.2 ± 12
562.44 K, 4500 kPa | 142.8 ± 6.1
562.56 K, 3500 kPa | 164.9 ± 7.5
563.13 K, 5500 kPa | 143.4 ± 6.2
563.76 K, 6500 kPa | 171.7 ± 8.4
563.92 K, 7500 kPa | 215.1 ± 11
567.95 K, 4500 kPa | 150.6 ± 6.8
568.21 K, 3500 kPa | 168.8 ± 7.9
568.4 K, 5500 kPa | 146.5 ± 6.6
568.54 K, 7500 kPa | 205.6 ± 11
568.59 K, 6500 kPa | 169 ± 8.1
573.12 K, 7500 kPa | 201.1 ± 10
573.18 K, 5500 kPa | 150 ± 6.7
573.36 K, 4500 kPa | 155.7 ± 7
573.51 K, 6500 kPa | 165.9 ± 7.6
574.58 K, 3500 kPa | 174.8 ± 8.2
578.08 K, 4500 kPa | 161.3 ± 7.2
578.22 K, 5500 kPa | 154 ± 6.9
578.65 K, 6500 kPa | 167.9 ± 7.9
578.77 K, 3500 kPa | 177.5 ± 8.3
579.07 K, 7500 kPa | 191.7 ± 9.4
582.79 K, 5500 kPa | 157.3 ± 7
582.93 K, 4500 kPa | 164.7 ± 7.4
583.09 K, 6500 kPa | 165.5 ± 7.4
583.3 K, 7500 kPa | 190.5 ± 9.4
584.09 K, 3500 kPa | 183 ± 8.6
587.91 K, 4500 kPa | 170.5 ± 8
588.07 K, 5500 kPa | 160.4 ± 7.1
588.45 K, 6500 kPa | 166.4 ± 7.5
588.59 K, 3500 kPa | 186.5 ± 8.7
589.01 K, 7500 kPa | 188.8 ± 9.3
592.61 K, 5500 kPa | 164.2 ± 7.3
592.78 K, 6500 kPa | 168.5 ± 7.9
593.04 K, 4500 kPa | 174.8 ± 8.1
593.24 K, 7500 kPa | 187.8 ± 9.2
594.05 K, 3500 kPa | 188.6 ± 9.2
597.84 K, 4500 kPa | 178.5 ± 8.3
597.98 K, 5500 kPa | 169.1 ± 7.9
598.14 K, 6500 kPa | 168.6 ± 7.8
598.52 K, 7500 kPa | 186.2 ± 8.7
598.83 K, 3500 kPa | 192.2 ± 9.3
602.73 K, 4500 kPa | 181.2 ± 8.4
602.85 K, 5500 kPa | 172 ± 8
603.05 K, 6500 kPa | 173.4 ± 8.1
603.41 K, 3500 kPa | 195.9 ± 9.5
603.44 K, 7500 kPa | 186 ± 8.7
608.03 K, 4500 kPa | 183.5 ± 8.5
608.05 K, 5500 kPa | 178 ± 8.3
608.12 K, 6500 kPa | 175.1 ± 8.1
608.49 K, 7500 kPa | 185.6 ± 8.6
608.96 K, 3500 kPa | 198.5 ± 9.6
612.5 K, 5500 kPa | 180.2 ± 8.4
612.69 K, 6500 kPa | 179.7 ± 8.3
612.7 K, 4500 kPa | 187 ± 9.1
613.43 K, 7500 kPa | 187.8 ± 9.1
614.5 K, 3500 kPa | 203.1 ± 9.9
617.91 K, 4500 kPa | 193.6 ± 9.4
618.05 K, 5500 kPa | 184.3 ± 8.5
618.21 K, 6500 kPa | 182 ± 8.4
618.56 K, 7500 kPa | 190.1 ± 9.2
618.79 K, 3500 kPa | 204.3 ± 9.9
622.49 K, 6500 kPa | 184.8 ± 8.6
622.59 K, 7500 kPa | 191 ± 9.2
622.8 K, 5500 kPa | 186.5 ± 8.6
623.06 K, 4500 kPa | 195.6 ± 9.5
624.52 K, 3500 kPa | 206.1 ± 10
628.11 K, 5500 kPa | 190.4 ± 9.2
628.12 K, 7500 kPa | 194.6 ± 9.4
628.15 K, 4500 kPa | 198.3 ± 9.6
628.16 K, 6500 kPa | 189 ± 9.1
629.29 K, 3500 kPa | 209.3 ± 10
632.52 K, 4500 kPa | 202.1 ± 9.8
632.99 K, 6500 kPa | 192.3 ± 9.3
633.06 K, 7500 kPa | 196.8 ± 9.5
633.07 K, 5500 kPa | 193.6 ± 9.4
633.86 K, 3500 kPa | 210.4 ± 11
635.27 K, 7500 kPa | 198 ± 9.6
635.5 K, 6500 kPa | 194.3 ± 9.4
636.04 K, 5500 kPa | 195 ± 9.4
636.79 K, 4500 kPa | 204.9 ± 9.9
637.99 K, 3500 kPa | 211.6 ± 11
